Test results published in patent US8367642B2, “Methods of preventing or treating diseases and conditions using complex carbohydrates” (Dermal Research Laboratories, Inc., priority 2000, dated 2013).

How the values were obtained:
polymyositis = test: Polymyositis in the same patient (Example 4); type: in vivo, human; conditions: 50 mg daily, before hyaluronate
Description: A person suffering from colon cancer had been unable to tolerate their colostomy and demanded that their surgeon remove the colostomy and reconnect their colon. They refused chemotherapy. They were given a formulation of 1% sodium hyaluronate (Collaborative Laboratories, Inc) which was prepared with a mixture of molecular weights of hyaluronate (as described in EXAMPLE 1). When they began taking the hyaluronate preparation, their CEA was 70.1. They have taken the hyaluronate at a dose of 10 mg three times per day mucosally and after 6 months of treatment their CEA has dropped to 4.1. They have taken no other treatments. This patient had also suffered from polymyositis for approximately 15 years. For this condition they were taking 50 mg of Prednisone daily with little relief. […] After 6 months of treatment with hyaluronate, they have been able to reduce their Prednisone to 5 mg every other day. […] The polymyositis that was successfully treated in this example was thought to represent treatment of a disease associated with the adhesion cascade or autoimmune disease.

[1] = test system: attention deficit disorder (ADD); test: Adult with attention deficit disorder, daily response (Example 5, FIG. 1); type: in vivo, human; conditions: earlier treatment
From the text: The subject adult was a person who had suffered all their life with attention deficit disorder (ADD).
They never knew what their problem was until recently when they were diagnosed. They described their childhood as unfocused and explained that they felt as though they were in a constant mental fog—unable to think clearly, or for that matter, unable to focus on a thought at all. […] Exposure to only a few minutes in a moldy room caused this individual to become dazed, unable to think, focus or even stay awake. They had only been able to do menial jobs. They spent most of their time staring out the window with no thoughts in their mind and, even if they tried, could not focus on a thought or task. They described themself as believing all their life that they were just stupid and unable to learn. They had been to multiple physicians and psychiatrists seeking treatment with no success. They had taken Ritalin with little relief. It allowed them to function partially but they were always tired and unable to focus on anything but the simplest of tasks. They agreed to take the oral sodium hyaluronate product and their family would report how they reacted. […]
FIG. 1 plots the response of this patient while taking the compositions of the present invention. […] If there were no significant negative or positive responses during a day, the reaction rate was recorded as 0. […]

[2] = test system: Attention Deficit Hyperactivity Disorder (ADHD) complicated by Turret's Syndrome; test: Treatment of a child with ADHD complicated by Turret's Syndrome (Example 2); type: in vivo, human; conditions: earlier treatment, discontinued 1.5 year before
Description: This treatment was not complicated by concurrent treatment with drugs such as Ritalin as their parents were adverse to using this medication. Therefore, any response observed was related to the use of the complex carbohydrates of the present invention. They took 10 mg in the morning and 10 mg in the evening, using the solution as a mouthwash (holding it in their mouth for about 10 to 20 seconds and then swallowing). […] However, within 15 minutes of their receiving the missing dose, they became calm and returned to normal. This child has remained totally under control for 6 months. This had never been observed before, even when they were taking Ritalin. […] It has been concluded that a disease typically thought to be related to a nervous disorder or to allergies was treatable by the complex carbohydrates of the present invention.

ADHD = test: child with ADHD, behaviour scores (Example 7, FIG. 2); type: in vivo, human; conditions: prescribed daily, earlier treatment
From the text: The subject child was a person who has suffered with ADHD all their life. […] Additionally, their behavior was such that they could not socialize with other children or with adults. When in contact with other children they were unable to play, often became angered and caused physical harm to others. They had been under treatment by several physicians, psychologists and allergists all their life but none were able to help their condition. The allergists determined that they had allergies to most all foods, dust, molds, soaps and just about everything in their environment. At one time they were prescribed Ritalin daily. […]
This child attended a special school in which their Teachers reported their daily activity to their parents so that they could try to monitor their eating habits. […] Their response was monitored by using the numerical score provided by their teachers and averaging it with a numerical score of their behavior at home provided by their parents. […] Their parents have commented that they have awakened in the morning and is happy, cheerful and cooperative in getting ready for school. […] If their behavior was belligerent, bossy, angry or non-cooperative they were scored as a −40 for the day. If their reactions to foods or environmental stimuli produced such a response it was recorded as a −40. If they responded as a normal person, the score was recorded as 0. […]

chronic eczema = test: Chronic eczema with yeast infection (Example 14); set-up: species or system human; conditions: in vivo
From the text: A person suffered from chronic eczema—scaly and red areas on their neck and arms. They had also been diagnosed with a yeast infection associated with the eczema. […] They initially used a topical preparation prepared according to this invention. This contained a mixture of low and high molecular weight sodium hyaluronate (prepared as in EXAMPLE 1) mixed with 1% Wintergreen Oil, 1% Spearmint Oil, and 0.5% Peppermint Oil. They applied it topically for four weeks. […] However, there was still itching and redness. They then began to orally take the 1% mixture, of low and high molecular weight sodium hyaluronate described in example 1. They reported that within 2 weeks all signs of the eczema had disappeared, the itching was gone and they felt better than they had felt for years. The oral dose required was 5 mg TID for this 91 pound person. Therefore, the dose was […].

lick granulomas = test: Lick granuloma of a Labrador retriever (Example 12); type: in vivo, dog; conditions: cortisone injections and hydrocortisone creams
Description: An eleven year old Labrador retriever had suffered from lick granulomas for at least 3 years. […] This dog's granuloma was located on the left hind leg above the pasturn. The swelling around the leg measured 8 inches in diameter and the open wound measured 4×3 inches. […] This dog was injected with 10 mg of sodium hyaluronate having a molecular weight ranging from 30,000 to 400,000 (1.0 mL intramuscularly—equivalent to 10 mg). The open wound began to heal. This injection was followed up with topical application of a low molecular weight hyaluronic acid prepared by making a 1% (wt/vol) solution of hyaluronic acid (Medex Ltd) containing 1% Wintergreen Oil (Loranne Oil), 1% Spearmint Oil (Loranne Oil) and 0.5% Peppermint Oil (Loranne Oil). The topical formulation was applied at least two times per day. […] The dog has not licked this area since treatment began. Therefore, the complex carbohydrates of the present invention are able to successfully treat lick granulomas (a previously untreatable condition of dogs) and eliminate the cause of the licking.

interstitial cystitis = test: Interstitial cystitis patient (Example 8); type: in vivo, human; conditions: 100 mg per day of macrodantin and 20 mg per day of feldene, earlier treatment
Description: Additionally, they had taken 200 mg TID of Elmiron to reduce the inflammation in the bladder lining. […] In order to sleep they took Prosed/DS, Ultram, Hydroxyzine HCl, Cardura, Amitriptyline. Sometimes all were taken at some time during the day or night. […] This patient was supplied with the mixed molecular weight preparation of sodium hyaluronate as described in EXAMPLE 1. They were also supplied with a topical preparation containing 1% wt/vol. Sodium hyaluronate at a molecular weight of <30,000 combined with 1% Oil of Wintergreen, 0.5% Spearmint Oil and 0.2% Peppermint Oil. They took 10 mg of the oral preparation 4 times per day. The last dose was taken before going to bed. Additionally, at bedtime, they rubbed their lower abdomen (over the bladder) with the topical preparation.

joint pain = conditions: oral doses between 1000 and 3000 mg/day (>15 mg/Kg); cited from earlier work
anti-coagulant activity = conditions: cited from earlier work

## C[C@]12C=CC(=O)C=C1CC[C@@H]1[C@@H]2C(=O)C[C@@]2(C)[C@H]1CC[C@]2(O)C(=O)CO [Prednisone]
polymyositis
  relief of polymyositis: little relief

## COC(=O)C(c1ccccc1)C1CCCCN1 (centres unmarked) [Ritalin]
[1]
  relief of ADD: little relief
[2]
  side effects: problems with side effects
ADHD
  reaction while taking the drug: suffered hallucinations and became even more uncontrollable

## C[C@]12CCC(=O)C=C1CC[C@@H]1[C@@H]2C(=O)C[C@@]2(C)[C@H]1CC[C@]2(O)C(=O)CO [cortisone]
Chronic eczema
  effect of earlier treatment on eczema: no significant effect
Lick granulomas
  success of earlier treatment of lick granuloma: little success

## CN1C(C(=O)Nc2ccccn2)=C(O)c2ccccc2S1(=O)=O [feldene]
Interstitial cystitis
  side effects: severe side effects

## C[C@]12CCC(=O)C=C1CC[C@@H]1[C@@H]2[C@@H](O)C[C@@]2(C)[C@H]1CC[C@]2(O)C(=O)CO [hydrocortisone]
Lick granulomas
  success of earlier treatment of lick granuloma: little success

## O=C1CN(/N=C/c2ccc([N+](=O)[O-])o2)C(=O)N1 [macrodantin]
Interstitial cystitis
  side effects: severe side effects

## chondroitin sulfate
Joint pain
  time until relief from joint pain: 6-9 months

## low molecular weight heparin
anti-coagulant activity
  anti-coagulant activity: free of anti-coagulant activity
